Experimental data as given in patent publication US20200131156A1, “ARYLSULFONYLPYROLECARBOXAMIDE DERIVATIVES AS Kv3 POTASSIUM CHANNEL ACTIVATORS” (H. Lundbeck A/S, priority 2018, published 2020).

Target: T1, hKv3.1b (Homo sapiens, UniProt P48547)
T1 construct: expressed in transfected cells
T1 sequence (P48547 1-585 isoform P48547-2): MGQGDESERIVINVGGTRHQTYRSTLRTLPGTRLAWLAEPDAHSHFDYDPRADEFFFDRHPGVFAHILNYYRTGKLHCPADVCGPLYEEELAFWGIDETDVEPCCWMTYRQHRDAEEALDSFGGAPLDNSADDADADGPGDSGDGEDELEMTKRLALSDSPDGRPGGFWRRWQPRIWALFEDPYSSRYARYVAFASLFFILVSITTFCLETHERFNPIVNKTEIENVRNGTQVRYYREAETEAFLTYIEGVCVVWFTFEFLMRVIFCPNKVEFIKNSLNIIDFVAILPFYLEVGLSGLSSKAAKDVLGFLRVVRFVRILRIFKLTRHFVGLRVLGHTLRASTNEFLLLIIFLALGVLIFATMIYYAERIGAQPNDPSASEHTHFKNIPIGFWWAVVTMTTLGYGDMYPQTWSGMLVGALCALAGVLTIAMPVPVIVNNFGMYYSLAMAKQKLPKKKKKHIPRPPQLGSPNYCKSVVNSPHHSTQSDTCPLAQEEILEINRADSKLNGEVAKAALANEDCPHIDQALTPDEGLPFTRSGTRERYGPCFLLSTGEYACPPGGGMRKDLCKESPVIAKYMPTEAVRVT
Assay: Automated patch clamp (QPatch-16x) on HEK-293 cells stably expressing hKv3.1b
Format: cell-based
Details: for ECdelta5 mV: concentration needed to shift the activation threshold 5 mV; for Threshold Shift: maximum absolute hyperpolarizing shift of activation threshold at tested concentrations 0.37-30 μM
Procedure: HEK-293 cells stably expressing hKv3.1b were used for the experiments. Cells were cultured in DMEM medium supplemented with 10% Fetal Bovine Serum, 100 ug/mL Geneticidin and 100 u/mL Penicillin/Streptomycin (all from Gibco). Cells were grown to 80-90% confluency at 37° C. and 5% CO2. On the day of the experiment the cells were detached from the tissue culture flasks by Detachin, resuspended in serum free medium containing 25 mM HEPES and transferred to the cell hotel of the QPatch. The cells were used for experiments 0-5 hours after detachment.
Patch-clamp recordings were performed using the automated recording system QPatch-16x (Sophion Bioscience, Denmark). Cells were centrifuged, SFM removed and the cells were resuspended in extracellular buffer containing (in mM): 145 NaCl, 4 KCl, 1 MgCl2, 2 CaCl2, 10 HEPES and 10 glucose (added fresh on the day of experiment); pH 7.4 adjusted with NaOH, 305 mOsm adjusted with sucrose.
Single cell whole-cell recordings were carried out using an intracellular solution containing (in mM): 120 KCl, 32.25/10 KOH/EGTA, 5.374 CaCl2, 1.75 MgCl2, 10 HEPES, 4 Na2ATP (added fresh on the day), pH 7.2 adjusted with KOH, […] adjusted with sucrose. Cell membrane potentials were held at −80 mV and currents were evoked by voltage steps (200 ms duration) from −70 mV to +10 mV (in 10 mV increments). Vehicle (0.33% DMSO) or increasing concentration of compound (I) were applied and the voltage protocol was run 3 times (resulting in 3 min cpd incubation time). Five increasing concentrations of compound (I) were applied to each cell.
Leak subtraction protocol was applied at −33% of the sweep amplitude, and serial resistance values were constantly monitored.
Any cell where serial resistance exceeded 25 MOhm, membrane resistance less than 200 MOhm or current size at −10 mV less than 200 pA was eliminated from the subsequent analysis.
Data analysis was performed using Sophion's QPatch assay software in combination with Microsoft Excel™ (Redmond, Wash., USA). Current voltage relationships were plotted from the peak current at the individual voltage steps normalized to the vehicle addition at 10 mV. The voltage threshold for channel activation was defined as 5% activation of the peak current at 10 mV in presence of vehicle. The activity of the compounds was described as the ability to shift this current voltage relationship to more hyperpolarized potentials and is given as the maximum absolute shift possible at the tested concentrations (0.37, 1.11, 3.33, 10, 30 μM). Concentration response curves were plotted from the threshold shift at the individual concentrations and were fitted excel fit model 205 sigmoidal dose-response model (fit=A+((B−A)/1+((C/x)^D)))), where A is the minimum value, B the maximum value, C the EC50 value and D the slope of the curve. The concentration needed to shift the threshold 5 mV was readout from this curve (ECdelta5 mV).

Row | SMILES | ECdelta5 mV | Threshold Shift
1 | Cc1ccc(S(=O)(=O)n2ccc(C(=O)NCc3ncc(C)o3)c2)cc1 [Compound 33, N-[(5-methyloxazol-2-yl)methyl]-1-(p-tolylsulfonyl)pyrrole-3-carboxamide] | 2200 nM | 15 mV
2 | Cc1ccc(S(=O)(=O)n2ccc(C(=O)NCc3nc(C)cs3)c2)cc1 [Compound 34, N-[(4-methylthiazol-2-yl)methyl]-1-(p-tolylsulfonyl)pyrrole-3-carboxamide] | 1100 nM | 18 mV
3 | Cc1ccc(S(=O)(=O)n2ccc(C(=O)NCc3cc(C)no3)c2)cc1 [Compound 35, N-[(3-methylisoxazol-5-yl)methyl]-1-(p-tolylsulfonyl) pyrrole-3-carboxamide] | 1100 nM | 21 mV
4 | Cc1ccc(S(=O)(=O)n2ccc(C(=O)NCc3ccn(C)n3)c2)cc1 [Compound 36, N-[(1-methylpyrazol-3-yl)methyl]-1-(p-tolylsulfonyl) pyrrole-3-carboxamide] | 810 nM | 27 mV
5 | Cc1ccc(S(=O)(=O)n2ccc(C(=O)NCc3cnn(C)c3)c2)cc1 [Compound 37, N-[(1-methylpyrazol-4-yl)methyl]-1-(p-tolylsulfonyl) pyrrole-3-carboxamide] | 1800 nM | 22 mV
6 | Cc1ccc(S(=O)(=O)n2ccc(C(=O)NCc3cnc(C)o3)c2)cc1 [Compound 38, N-[(2-methyloxazol-5-yl)methyl]-1-(p-tolylsulfonyl)pyrrole-3-carboxamide] | 4600 nM | 13 mV
7 | Cc1ccc(S(=O)(=O)n2ccc(C(=O)NCc3ncc(C)s3)c2)cc1 [Compound 39, N-[(5-methylthiazol-2-yl)methyl]-1-(p-tolylsulfonyl)pyrrole-3-carboxamide] | 1600 nM | 17 mV
8 | Cc1ccc(S(=O)(=O)n2ccc(C(=O)NCc3cn(C)cn3)c2)cc1 [Compound 40, N-[(1-methylimidazol-4-yl)methyl]-1-(p-tolylsulfonyl)pyrrole-3-carboxamide] | 2000 nM | 22 mV
9 | Cc1ccc(S(=O)(=O)n2ccc(C(=O)NCc3cn(C)nn3)c2)cc1 [Compound 41, N-[(1-methyltriazol-4-yl)methyl]-1-(p-tolylsulfonyl)pyrrole-3-carboxamide] | 3100 nM | 17 mV
10 | Cc1ccc(S(=O)(=O)n2ccc(C(=O)NCc3ncn(C)n3)c2)cc1 [Compound 42, N-[(1-methyl-1,2,4-triazol-3-yl)methyl]-1-(p-tolylsulfonyl)pyrrole-3-carboxamide] | 1700 nM | 25 mV
11 | Cc1ccc(S(=O)(=O)n2ccc(C(=O)NCc3nc(C)no3)c2)cc1 [Compound 43, N-[(3-methyl-1,2,4-oxadiazol-5-yl)methyl]-1-(p-tolylsulfonyl)pyrrole-3-carboxamide] | 1700 nM | 23 mV
12 | Cc1ccc(S(=O)(=O)n2ccc(C(=O)NCc3coc(C)n3)c2)cc1 [Compound 47, 1-(4-methylbenzene-1-sulfonyl)-N-[(2-methyl-1,3-oxazol-4-yl)methyl]-1H-pyrrole-3-carboxamide] | 2300 nM | 12 mV
13 | Cc1cnc(CNC(=O)c2ccn(S(=O)(=O)c3ccccc3)c2)cn1 [Compound 48, 1-(benzenesulfonyl)-N-[(5-methylpyrazin-2-yl)methyl]-1H-pyrrole-3-carboxamide] | 2300 nM | 18 mV
14 | Cc1ccc(S(=O)(=O)n2ccc(C(=O)NCc3cscn3)c2)cc1 [Compound 49, 1-(4-methylbenzene-1-sulfonyl)-N-[(1,3-thiazol-4-yl)methyl]-1H-pyrrole-3-carboxamide] | 2100 nM | 13 mV
15 | Cc1ccc(S(=O)(=O)n2ccc(C(=O)NCc3cnco3)c2)cc1 [Compound 50, 1-(4-methylbenzene-1-sulfonyl)-N-[(1,3-oxazol-5-yl)methyl]-1H-pyrrole-3-carboxamide] | 3300 nM | 13 mV
16 | Cc1ccc(S(=O)(=O)n2ccc(C(=O)NCc3nccs3)c2)cc1 [Compound 51, 1-(4-methylbenzene-1-sulfonyl)-N-[(1,3-thiazol-2-yl)methyl]-1H-pyrrole-3-carboxamide] | 2400 nM | 14 mV
17 | Cc1ccc(S(=O)(=O)n2ccc(C(=O)NCc3ccon3)c2)cc1 [Compound 52, 1-(4-methylbenzene-1-sulfonyl)-N-[(1,2-oxazol-3-yl)methyl]-1H-pyrrole-3-carboxamide] | 2500 nM | 13 mV
18 | Cc1ccc(S(=O)(=O)n2ccc(C(=O)NCc3ccno3)c2)cc1 [Compound 53, 1-(4-methylbenzene-1-sulfonyl)-N-[(1,2-oxazol-5-yl)methyl]-1H-pyrrole-3-carboxamide] | 2300 nM | 15 mV
19 | Cc1ccc(S(=O)(=O)n2ccc(C(=O)NCc3cocn3)c2)cc1 [Compound 54, 1-(4-methylbenzene-1-sulfonyl)-N-[(1,3-oxazol-4-yl)methyl]-1H-pyrrole-3-carboxamide] | 2000 nM | 15 mV
20 | Cc1ccc(S(=O)(=O)n2ccc(C(=O)NCc3cnsc3)c2)cc1 [Compound 55, 1-(4-methylbenzene-1-sulfonyl)-N-[(1,2-thiazol-4-yl)methyl]-1H-pyrrole-3-carboxamide] | 1500 nM | 15 mV
21 | Cc1ccc(S(=O)(=O)n2ccc(C(=O)NCc3nncs3)c2)cc1 [Compound 56, 1-(4-methylbenzene-1-sulfonyl)-N-[(1,3,4-thiadiazol-2-yl)methyl]-1H-pyrrole-3-carboxamide] | 6800 nM | 14 mV
22 | Cc1ccc(S(=O)(=O)n2ccc(C(=O)NCc3ncon3)c2)cc1 [Compound 57, 1-(4-methylbenzene-1-sulfonyl)-N-[(1,2,4-oxadiazol-3-yl)methyl]-1H-pyrrole-3-carboxamide] | 3600 nM | 14 mV
23 | Cc1ccc(S(=O)(=O)n2ccc(C(=O)NCc3cncnc3)c2)cc1 [Compound 58, 1-(4-methylbenzene-1-sulfonyl)-N-[(pyrimidin-5-yl)methyl]-1H-pyrrole-3-carboxamide] | 2200 nM | 22 mV
24 | O=C(NCc1cnccn1)c1ccn(S(=O)(=O)c2ccccc2F)c1 [Compound 59, 1-(2-fluorobenzene-1-sulfonyl)-N-[(pyrazin-2-yl)methyl]-1H-pyrrole-3-carboxamide] | 2000 nM | 14 mV
25 | Cc1cccc(S(=O)(=O)n2ccc(C(=O)NCc3ccn(C)n3)c2)c1 [Compound 60, 1-(3-methylbenzene-1-sulfonyl)-N-[(1-methyl-1H-pyrazol-3-yl)methyl]-1H-pyrrole-3-carboxamide] | 2200 nM | 16 mV
26 | Cc1cccc(S(=O)(=O)n2ccc(C(=O)NCc3nc(C)no3)c2)c1 [Compound 61, 1-(3-methylbenzene-1-sulfonyl)-N-[(3-methyl-1,2,4-oxadiazol-5-yl)methyl]-1H-pyrrole-3-carboxamide] | 5900 nM | 12 mV
